Source: patent US20070172933A1, “Thermally stable amidases” (priority 2003, published 2007)
Read-outs that look alike come from different tables or passages of the source.

Experiments:
amidase [1] = assay: Substrate specificity of the isolated amidase (hydrolysis assay); type: biochemical, Pseudonocardia thermophila
Protocol: (§1) To carry out the hydrolysis assay, where not mentioned otherwise, use was made of a 5 mM benzamide solution in 500 μl of a 60 mM K-Na phosphate buffer, pH 7.2. The enzymatic reaction proceeded for one hour at 70° C. with addition of 5 μg of the enzyme. The reaction was stopped by cooling the reaction solution on ice. […] One unit (U) of amidase activity is defined as the amount of enzyme which catalyzes the formation of 1 μmol of benzoic acid per minute.
The substrate specificity of the amidase was tested at three different temperatures taking into account the substrate used in each case. For hydrolysis of amino acid amides, the reaction mixture was reacted for 3 h at 30° C., in the case of the aliphatic and cyclic amides 1 h at 50° C., and for aromatic amide substrates 1 h at 70° C. The enzymatic activity was then determined as described above. The control used was each batch without enzyme.

amidase [2] = assay: Enantioselectivity of the isolated amidase, chiral HPLC; type: biochemical, Pseudonocardia thermophila; conditions: 70° C.
Protocol: For this, 10 μg of the purified amidase were incubated with a 5 mM racemic 2-phenylpropionamide solution for 3 h at 70° C., the end volume of the reaction batch being 500 μl. At 30-minute intervals, samples were taken from the reaction batch and analyzed by an HPLC measurement.
The product determination and quantification of the R-and S-stereoisomers of the 2-phenylpropionamide were determined by injecting defined amounts of the corresponding pure substances as standard. The enantiomeric excess (ee) was calculated on the basis of the peak area ratio obtained by the chirar HPLC measurement (ee^p=(S−R)/(S+R); ee^p (%)=(S−R)/(S+R) ×100; where p=product).
For the HPLC measurements, a chiral Chirobiotic T column (Astec, Whippany, USA) was used. The solvent used was ethanol and 20 mM potassium phosphate buffer, pH 7.2, having a volumetric ratio of 20:80. The elution was performed at room temperature using a flow rate of 0.8 ml min^−1. Detection was performed at a wavelength of 210 nm. The amfmonia concentration was studied using the phenol hypochloride method using the ammonia kit Spectroquant 114752 (Merck, Germany), the amount of ammonia released being determined spectrometrically using ammonium chloride as standard.

amidase [3] = assay: Effect of metals and inhibitors (reagents and ions) on amidase activity, benzamide hydrolysis; type: biochemical, Pseudonocardia thermophila; conditions: for Amidase activity in %: reagent 1 mM, preincubated 1 h at 22° C., benzamide, 1 h at 70° C.
Protocol: as §1
To study the effect of certain reagents and ions on amidase activity, a solution containing 5 μg of amidase and the reagent or ion was preincubated for 1 h at 22° C. in 50 mM phosphate buffer. A 5 mM solution of benzamide in 50 mM phosphate buffer was then added until the end concentration of the reagent in the reaction batch was 1 mM. The reaction was performed for 1 h at 70° C. The catalytic activity was determined as described above.

[4] = Hydrolysis assay, specific activity of the purified amidase; type: biochemical, Pseudonocardia thermophila; conditions: benzamide as substrate, after purification
Protocol: To carry out the hydrolysis assay, where not mentioned otherwise, use was made of a 5 mM benzamide solution in 500 μl of a 60 mM K-Na phosphate buffer, pH 7.2. The enzymatic reaction proceeded for one hour at 70° C. with addition of 5 μg of the enzyme. The reaction was stopped by cooling the reaction solution on ice. The concentration of the products obtained enzymatically (benzoic acid and ammonia) was determined by means of HPLC and spectrometrically, using the ammonia kit Spectroquant 114752 (Merck, Germany). One unit (U) of amidase activity is defined as the amount of enzyme which catalyzes the formation of 1 μmol of benzoic acid per minute.

[5] = type: physicochemical, Pseudonocardia thermophila; conditions: pH 7.2
Protocol: In addition, the temperature stability of the enzymes was studied between 50° C. and 80° C. over a relatively long period. […] (middle curve, FIG. 5).

[6] = Determination of the isoelectric point by isoelectric focusing; type: physicochemical, Pseudonocardia thermophila
Protocol: The isoelectric point was determined by means of isoelectric focusing using a Novex polyacrylamide gel (pH .3-10) and using a Novex electrophoresis chamber in accordance with the manufacturer's instructions (Novex, Invitrogen, Netherlands). The isoelectric point of the purified amidase was determined at pH 4.2.

[7] = Aliphatic amides, 1 h at 50° C.
[8] = Amino acid amides, 3 h at 30° C.
[9] = Heterocycles, temperature for this group not stated clearly

With `CC(O)C(N)=O` (racemic) [DL-lactamide] as the molecule, how does the Specific activity (amidase [1]; [7]) read?
Its Specific activity is 18.9 µmol/min/mg.

Which Specific activity (amidase [1]; Aromatic amides, 1 h at 70° C.) does the source give for `NC(=O)c1ccccc1N` [2-aminobenzamide] here?
Its Specific activity is 3.4 µmol/min/mg.

For `CSCCC(O)C(N)=O` (stereo not drawn) [2-hydroxy-4-(methylthio)butyramide], which Specific activity (amidase [1]; [8]) is on record?
Its Specific activity is 5.7 µmol/min/mg.

What does the source list for `CC(C(N)=O)c1ccccc1` (stereo not drawn) [2-phenylpropionamide]?
Specific activity (amidase [1]; Aromatic amides, 1 h at 70° C.): 15.8 µmol/min/mg; conversion (amidase [2]; 5 mM racemic substrate, after 60 minutes): 50%; enantiomeric excess ee^p (amidase [2]; 5 mM racemic substrate, after 60 minutes, S-enantiomer product): greater than 95%; enantioselectivity of the purified amidase for the substrate (amidase [2]; racemic substrate): highly S-selective

With `NC(=O)Cc1c[nH]c2ccccc12` [3-indolylacetamide] as the molecule, how does the Specific activity (amidase [1]; Aromatic amides, 1 h at 70° C.) read?
Its Specific activity is 7.56 µmol/min/mg.

With `NC(=O)c1ccc(N)cc1` [4-aminobenzamide] as the molecule, how does the Specific activity (amidase [1]; Aromatic amides, 1 h at 70° C.) read?
The Specific activity was 6.5 µmol/min/mg.

For `[Ba+2]` [Ba^2+], which “Amidase activity in %” value (amidase [3]) is on record?
The value was 87%.

For `[Ca+2]` [Ca^2+], which “Amidase activity in %” value (amidase [3]) is on record?
The value was 85%.

For `[Co+2]` [Co^2+], which “Amidase activity in %” value (amidase [3]) is on record?
Its value is 0%.

Which “Amidase activity in %” value (amidase [3]) does the source give for `[Cu+2]` [Cu^2+] here?
The value was 26%.

For `O[C@@H](CS)[C@@H](O)CS` [DTT], which “sensitivity of the amidases to the reagent (in words)” value (shortened to “sensitivity of the amidases”) (amidase [3]) is on record?
Its value is “increased”.

And the “Amidase activity in %” value (amidase [3])?
The value was 120%.

With `O=C(O)CN(CCN(CC(=O)O)CC(=O)O)CC(=O)O` [EDTA] as the molecule, how does the “sensitivity of the amidases” value (amidase [3]) read?
Its value is “insensitive”.

What about the “Amidase activity in %” value (amidase [3]) of the same molecule?
Its value is 100%.

Which Specific activity (amidase [1]; [8]) does the source give for `C[C@H](N)C(N)=O` [L-alaninamide] here?
Its Specific activity is 10.5 µmol/min/mg.

With `CC(C)C[C@H](N)C(N)=O` [L-leucinamide] as the molecule, how does the Specific activity (amidase [1]; [8]) read?
Its Specific activity is 10.8 µmol/min/mg.

Which Specific activity (amidase [1]; [8]) does the source give for `CSCC[C@H](N)C(N)=O` [L-methioninamide] here?
Its Specific activity is 14.4 µmol/min/mg.

For `NC(=O)[C@@H]1CCCN1` [L-prolinamide], which Specific activity (amidase [1]; [8]) is on record?
Its Specific activity is 13.0 µmol/min/mg.

With `CC(C)(C)[C@H](N)C(N)=O` [L-tert-leucinamide] as the molecule, how does the Specific activity (amidase [1]; [8]) read?
Its Specific activity is 0.08 µmol/min/mg.

With `NC(=O)[C@@H](N)Cc1c[nH]c2ccccc12` [L-tryptophanamide] as the molecule, how does the Specific activity (amidase [1]; [8]) read?
Its Specific activity is 10.3 µmol/min/mg.

For `CC(C)[C@H](N)C(N)=O` [L-valinamide], which Specific activity (amidase [1]; [8]) is on record?
The Specific activity was 13.0 µmol/min/mg.

With `[Mg+2]` [Mg^2+] as the molecule, how does the “Amidase activity in %” value (amidase [3]) read?
Its value is 90%.

With `[Mn+2]` [Mn^2+] as the molecule, how does the “Amidase activity in %” value (amidase [3]) read?
Its value is 98%.

With `[Ni+2]` [Ni^2+] as the molecule, how does the “Amidase activity in %” value (amidase [3]) read?
The value was 42%.

With `CCCCCCCCCCCCOS(=O)(=O)[O-].[Na+]` [SDS] as the molecule, how does the “sensitivity of the amidases” value (amidase [3]) read?
The value was “insensitive”.

And the “Amidase activity in %” value (amidase [3])?
The value was 100%.

Which “Amidase activity in %” value (amidase [3]) does the source give for `[Zn+2]` [Zn^2+] here?
The value was 93%.

Which Specific activity (amidase [1]; [7]) does the source give for `CC(N)=O` [acetamide] here?
The Specific activity was 15.7 µmol/min/mg.

For `NC(=O)CCCCC(N)=O` [adipamide], which Specific activity (amidase [1]; [7]) is on record?
Its Specific activity is 12.0 µmol/min/mg.

With `NC(=O)c1ccccc1` [benzamide] as the molecule, how does the Specific activity (amidase [1]; Aromatic amides, 1 h at 70° C.) read?
The Specific activity was 19.4 µmol/min/mg.

With `NC=O` [formamide] as the molecule, how does the Specific activity (amidase [1]; [7]) read?
Its Specific activity is 9.2 µmol/min/mg.

With `CCCCCC(N)=O` [hexanoamide] as the molecule, how does the Specific activity (amidase [1]; [7]) read?
Its Specific activity is 9.3 µmol/min/mg.

With `NC(=O)CI` [iodoacetamide] as the molecule, how does the “Amidase activity in %” value (amidase [3]) read?
Its value is 90%.

With `O=C(O)CI` [iodoacetate] as the molecule, how does the “Amidase activity in %” value (amidase [3]) read?
The value was 22%.

Which Specific activity (amidase [1]; [7]) does the source give for `CC(C)C(N)=O` [isobutyramide] here?
Its Specific activity is 13.5 µmol/min/mg.

With `NC(=O)c1ccncc1` [isonicotinamide] as the molecule, how does the Specific activity (amidase [1]; [9]) read?
The Specific activity was 7.1 µmol/min/mg.

For `NC(=O)CC(N)=O` [malonamide], which Specific activity (amidase [1]; [7]) is on record?
The Specific activity was 7.4 µmol/min/mg.

With `C=C(C)C(N)=O` [methacrylamide] as the molecule, how does the Specific activity (amidase [1]; [7]) read?
Its Specific activity is 23.5 µmol/min/mg.

With `NC(=O)c1cccnc1` [nicotinamide] as the molecule, how does the Specific activity (amidase [1]; [9]) read?
The Specific activity was 11.6 µmol/min/mg.

With `NC(=O)c1ccccc1O` [o-hydroxybenzamide] as the molecule, how does the Specific activity (amidase [1]; Aromatic amides, 1 h at 70° C.) read?
Its Specific activity is 7.4 µmol/min/mg.

For `CC(C)(C)C(N)=O` [pivalamide], which Specific activity (amidase [1]; [7]) is on record?
Its Specific activity is 14.9 µmol/min/mg.

Which Specific activity (amidase [1]; [7]) does the source give for `CCC(N)=O` [propionamide] here?
Its Specific activity is 25.4 µmol/min/mg.

Which Specific activity (amidase [1]; [9]) does the source give for `NC(=O)c1cnccn1` [pyrazinamide] here?
Its Specific activity is 11.2 µmol/min/mg.

For `NC(=O)CCC(N)=O` [succinamide], which Specific activity (amidase [1]; [7]) is on record?
Its Specific activity is 4.0 µmol/min/mg.

Which Specific activity (amidase [1]; [7]) does the source give for `NC(N)=O` [urea] here?
Its Specific activity is 17.5 µmol/min/mg.

For Triton X-100, which “sensitivity of the amidases” value (amidase [3]) is on record?
Its value is “insensitive”.

What about the “Amidase activity in %” value (amidase [3]) of the same molecule?
Its value is 100%.

With m-tolylamide as the molecule, how does the Specific activity (amidase [1]) read?
The Specific activity was 12.7 µmol/min/mg.

For p-tolylamide, which Specific activity (amidase [1]; Aromatic amides, 1 h at 70° C.) is on record?
Its Specific activity is 13.1 µmol/min/mg.

B1: amidase: thermally stable amidase purified from Pseudonocardia thermophila (DSMZ 43832); SEQ ID No. 1, 2, 3 (protein, listed as Pseudonocardia thermophila)
chain 1: IHMPDPDAV
chain 2: DGLPVGLMIVGKHF
chain 3: MIHMPDPDAVARMAAEGRFGIPVVVICRTYHDLGHRPARLVEQGRRAVRGGGPHPAAALVDPPRRRGRQARRVGGADLDHRNLGGAARRPHGRGQDNVAVAGVPMMNGSRTLEGFVPAEDATVVSRLLAAGATIAGKSVCEDLCFSGGSHTSKPGTVHNPWDMSRSAGGSSSGSGALVAAGEVDMAIGGDQGGSIRIPSAYCGTVGHKPTHGLVPYTGGFPIEQSIDHLGPITRTVADAALMLSVIAGRDGLDPRQPDVVEVQDYVGALAESVSGLRIGVLQEGFGHPNSEPEVDDTVRAAVGTLREAGFTVEDVSVPWHLHATAIWDVLATEGGLWQMVEGNAYGMHWKGHYDPSLIAYYGRKWREDPAQFSETVKLVALAGRYALTTQYGRHYAMARNLAPKLVAAYDAALSNYDVLVMPTLPMRATVLPGPDAPVEEILARGLEMLANTAPFDVTGHPACSVPAGLADGLPVGLMIVGKHFDDATVLKVANAFEQAVGGFPTPAAZ
Which Specific activity [4] does the source give for B1 here?
The Specific activity was 19.5 U/mg of protein.

And the “Substrate specificity (amides)” value (amidase [1]; Table 4, inventive amidase)?
Its value is “Al, Ar, Cy, As”.

And the “enzymatic activity over time (thermal stability)” value [5]?
The value was “decreases rapidly”.

What about the isoelectric point ([6]; Novex polyacrylamide gel) of the same molecule?
The isoelectric point was 4.2 pH.

And the “IEF point pH” value ([6]; Table 4, inventive amidase)?
Its value is 4.2 pH.
